No end group written: not given here.

One assay addresses T1, KISS1R (Homo sapiens, UniProt Q969F8).
Experiment: not given
Further details: expressed in transfected cells; host or cells: CHO cells. The settings on record: [Ca2+] increasing activity, CHO cells expressing human KISS1R; (95% confidence interval); read-out: Agonist activity EC50; cited from earlier work.
Target sequence in this assay (Q969F8 whole entry): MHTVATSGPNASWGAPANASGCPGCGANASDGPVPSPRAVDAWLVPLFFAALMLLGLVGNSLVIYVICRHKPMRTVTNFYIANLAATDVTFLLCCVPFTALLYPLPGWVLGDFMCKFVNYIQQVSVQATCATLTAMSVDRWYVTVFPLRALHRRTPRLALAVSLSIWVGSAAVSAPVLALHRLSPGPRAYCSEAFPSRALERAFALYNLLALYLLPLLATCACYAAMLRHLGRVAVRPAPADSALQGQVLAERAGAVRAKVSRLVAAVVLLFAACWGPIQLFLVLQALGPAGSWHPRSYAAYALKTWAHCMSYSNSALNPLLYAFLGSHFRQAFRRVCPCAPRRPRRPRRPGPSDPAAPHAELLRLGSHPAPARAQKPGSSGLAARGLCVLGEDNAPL
Regarding “Palm-γ-DYNWNSFGT[Tz]LR[Me]Y-NH2 [Compound 6**, Decourt et al., 2016 numbering]”, the EC50 is 0.17 nM.

As to “YNWNSFGLRY [Compound 2**, Decourt et al., 2016 numbering]”, the EC50 is 0.057 nM.

Regarding “Ac-YNK(Palm-γ-D)NSFGT[Tz]LRY-NH2 [Compound 4**, Decourt et al., 2016 numbering]”, the EC50 is 2.1 nM.

Regarding “Palm-γ-DYNWNSFG′P[Tz]LRY-NH2 [Compound 5**, Decourt et al., 2016 numbering]”, the EC50 was 0.13 nM.

Take “Ac-YNWNSFGT[Tz]LR[Me]Y-NH2 [Compound 7**, Decourt et al., 2016 numbering]”: the EC50 was 1.5 nM.

The test system of a further assay is primary mouse hepatocytes. Put plainly: FFA-loaded isolated primary mouse hepatocytes treated with KP-10 or TAK. The settings on record: primary mouse hepatocytes, treatment for 8 hours; RT-qPCR.
Protocol: (n=4) * p < 0.05; One-way ANOVA followed by Dunnett’s post-hoc test.
Primary hepatocytes from mice were isolated according to known methods. Mice (wild-type, C57BL6) or LKO and littermate controls were anesthetized using a ketamine/xylazine mixture (Henry Schein™). The liver was cannulated via the hepatic portal vein and first perfused with 37° C. Kreb’s Ringer solution containing EGTA for 10 minutes. After the first wash, a second Kreb’s Ringer solution containing CaCl2 and LIBERASE (Roche™) was used until the liver was thoroughly perfused. Hepatocytes were filtered through a gauze mesh and resuspended in William’s Media E (Sigma™) with 10 % FBS (Sigma™), 200 nM dexamethasone (Sigma™), 5 mM pen/strep (Fisher™), 2 mM L-glutamine (Fisher™). Cells were plated at a density of 3 × 10^5 on 6-well collagen-coated plates (Sigma™). Hepatocytes were left to recover overnight and then were serum starved for 3 hours prior to experiments. For free fatty acid (FFA) loading, 150 µM oleic and 150 µM palmitic acid was conjugated with 2% BSA (0.3 mM).
As for YNWNSFGLRF [Kisspeptin-10], the “expression of de novo lipogenic genes” value was “reduced”.

Still in this assay, the particulars now being: primary mouse hepatocytes; western blot; n=4.
Take YNWNSFGLRF [Kisspeptin-10]: the “phosphorylation of AMPK and its downstream target ACC” value is listed as “stimulated phosphorylation”.

The test system of another assay is healthy men.
Experiment: not given
The settings on record: cited from earlier work.
For the substance “Gly-Thr-Ser-Leu-Ser-Pro-Pro-Pro-Glu-Ser-Ser-Gly-Ser-Arg-Gln-Gln-Pro-Gly-Leu-Ser-Ala-Pro-His-Ser-Arg-Gln-Ile-Pro-Ala-Pro-Gln-Gly-Ala-Val-Leu-Val-Gln-Arg-Glu-Lys-Asp-Leu-Pro-Asn-Tyr-Asn-Trp-Asn-Ser-Phe-Gly-Leu-Arg-Phe-NH2 (GTSLSPPPESSGSRQQPGLSAPHSRQIPAPQGAVLVQREKDLPNYNWNSFGLRF-NH2) [Kisspeptin-54]”, the “food intake or appetite” value is listed as “without altering” and the insulin secretion entry is on record as “enhance”.

In the next assay the target is T1, KISS1R.
Experiment: not given
Further details: expressed in transfected cells; host or cells: CHO (CHO-KISS1R), membrane preparations. The note with it: CHO-KISS1R membrane preparations; means +/- SE; n = 3-5; read-out: IC50 against [125I]KP-54 binding to KISS1R; cited from earlier work.
Target sequence in this assay (Q969F8 whole entry, species assumed): as the sequence (Q969F8 whole entry) above
Regarding YNWNTFGLRF [ANA14], the IC50 was 2.3 ± 1.6 nM.

As to YNANSFGLRF [ANA3], the IC50 was 2.7 ± 0.7 nM.

As to YNWASFGLRF [ANA4], the IC50 was 43.5 ± 15.5 nM.

For YNWNSFGARF [ANA8], the IC50 was 77.4 ± 10 nM.

As for YNWNSAGLRF [ANA6], the IC50 was 110 ± 89.8 nM.

For YNWNSFALRF [ANA7], the IC50 was 4.6 ± 1.5 nM.

For the substance YNWNSFGLKF [ANA17], the concentration for half-maximal inhibition (IC50) was 9.8 ± 2.6 nM.

With YAWNSFGLRF [ANA2], the IC50 was 145 ± 138 nM.

Take FNWNSFGLRF [ANA11]: the IC50 was 3.5 ± 2.1 nM.

As to YNWNSFGIRF [ANA 16], the IC50 is 39.9 ± 8.1 nM.

For YNWNAFGLRF [ANA5], the IC50 is 0.8 ± 0.4 nM.

Consider ANWNSFGLRF [ANA1], for which the IC50 is 23.2 ± 14.3 nM.

Regarding YDWNSFGLRF [ANA12], the IC50 was 29.1 ± 13.5 nM.

Consider YNWDSFGLRF [ANA13], for which the IC50 was 140 ± 60.6 nM.

As to YNWNSYGLRF [ANA15], the IC50 was 87.5 ± 30.7 nM.

On to YNWNSFGLRH [ANA18], for which the concentration for half-maximal inhibition (IC50) is 378 ± 266 nM.

For orientation: EC50 means the concentration at which the effect is half-maximal. In general, IC50 refers to the concentration at which inhibition is half-maximal.

Values taken from patent US20230256051A1, “MODIFIED KISSPEPTIN RECEPTOR AGONISTS FOR FATTY LIVER DISEASE” (priority 2020, published 2023).
